The target in assay [1] is HaloTag[22-297](M2F)-12xGly/Ser-LgBiT-3xGly/Ser-6xHis (Rhodococcus rhodochrous, UniProt P0A3G2, A155T/A167V/A172T/A224E/C128F/C176G/D78G/E160K/E257K/H272N/K175M/K195N/L47V/L88M/N227D/S58T/T264A/Y273L/Y87F). Put plainly: biochemical. The class given is binding.
The target in assay [2] is HaloTag[22-297](M2F + K140E)-12xGly/Ser-LgBiT-3xGly/Ser-6xHis (Rhodococcus rhodochrous, UniProt P0A3G2, A155T/A167V/A172T/A224E/C128F/C176G/D78G/E257K/H272N/K175M/K195N/L47V/L88M/N227D/S58T/T264A/Y273L/Y87F). Nature of the assay: biochemical. The following applies: KD, biotinylated peptide on streptavidin probes, PBST, 25° C. The format is binding.
Sequence of HaloTag[22-297](M2F + K140E)-12xGly/Ser-LgBiT-3xGly/Ser-6xHis (P0A3G2 23-290 with tags or gaps with the stated changes): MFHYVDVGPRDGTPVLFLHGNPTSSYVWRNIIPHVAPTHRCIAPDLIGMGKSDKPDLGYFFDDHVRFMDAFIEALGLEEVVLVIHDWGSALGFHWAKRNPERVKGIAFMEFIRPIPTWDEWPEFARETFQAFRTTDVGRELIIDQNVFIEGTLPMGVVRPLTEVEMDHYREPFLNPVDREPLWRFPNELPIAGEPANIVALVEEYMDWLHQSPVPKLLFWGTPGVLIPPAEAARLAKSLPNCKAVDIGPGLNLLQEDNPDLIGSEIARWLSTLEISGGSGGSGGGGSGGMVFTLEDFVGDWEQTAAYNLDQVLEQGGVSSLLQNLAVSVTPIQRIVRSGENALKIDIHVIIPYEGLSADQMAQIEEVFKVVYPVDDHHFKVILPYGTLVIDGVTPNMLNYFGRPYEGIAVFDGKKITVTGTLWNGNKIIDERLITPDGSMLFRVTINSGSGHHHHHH
Assay [3] addresses HaloTag[22-297](M2F + D53G + V177E)-12xGly/Ser-LgBiT-3xGly/Ser-6xHis (Rhodococcus rhodochrous, UniProt P0A3G2, A155T/A167V/A172T/A224E/C128F/C176G/D73G/D78G/E160K/E257K/H272N/K175M/K195N/L47V/L88M/N227D/S58T/T264A/V197E/Y273L/Y87F). Put plainly: biochemical. The class given is binding.
The target of assay [4] is HaloTag[22-297](M2F + F148M + V177E)-12xGly/Ser-LgBiT-3xGly/Ser-6xHis (Rhodococcus rhodochrous, UniProt P0A3G2, A155T/A167V/A172T/A224E/C128F/C176G/D78G/E160K/E257K/F168M/H272N/K175M/K195N/L47V/L88M/N227D/S58T/T264A/V197E/Y273L/Y87F). Put plainly: biochemical. The format is binding.
Sequence of HaloTag[22-297](M2F + F148M + V177E)-12xGly/Ser-LgBiT-3xGly/Ser-6xHis (P0A3G2 23-290 with tags or gaps with the stated changes): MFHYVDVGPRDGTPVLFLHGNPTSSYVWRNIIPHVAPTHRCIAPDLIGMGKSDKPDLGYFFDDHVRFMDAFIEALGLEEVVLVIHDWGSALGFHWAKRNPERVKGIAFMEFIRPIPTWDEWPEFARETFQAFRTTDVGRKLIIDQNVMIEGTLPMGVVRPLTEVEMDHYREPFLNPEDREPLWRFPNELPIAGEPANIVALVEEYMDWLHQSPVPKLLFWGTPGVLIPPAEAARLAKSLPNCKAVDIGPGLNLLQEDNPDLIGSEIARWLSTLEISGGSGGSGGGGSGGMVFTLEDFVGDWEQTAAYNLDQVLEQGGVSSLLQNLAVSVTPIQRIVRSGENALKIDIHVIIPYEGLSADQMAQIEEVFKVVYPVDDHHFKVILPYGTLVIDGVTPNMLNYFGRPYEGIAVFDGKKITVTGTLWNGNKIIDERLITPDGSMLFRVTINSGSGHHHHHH
For assay [5], the target named is HaloTag[22-297](M2F + D53G + K140E)-12xGly/Ser-LgBiT-3xGly/Ser-6xHis (Rhodococcus rhodochrous, UniProt P0A3G2, A155T/A167V/A172T/A224E/C128F/C176G/D73G/D78G/E257K/H272N/K175M/K195N/L47V/L88M/N227D/S58T/T264A/Y273L/Y87F). Put plainly: biochemical. The format is binding.
Sequence of HaloTag[22-297](M2F + D53G + K140E)-12xGly/Ser-LgBiT-3xGly/Ser-6xHis (P0A3G2 23-290 with tags or gaps with the stated changes): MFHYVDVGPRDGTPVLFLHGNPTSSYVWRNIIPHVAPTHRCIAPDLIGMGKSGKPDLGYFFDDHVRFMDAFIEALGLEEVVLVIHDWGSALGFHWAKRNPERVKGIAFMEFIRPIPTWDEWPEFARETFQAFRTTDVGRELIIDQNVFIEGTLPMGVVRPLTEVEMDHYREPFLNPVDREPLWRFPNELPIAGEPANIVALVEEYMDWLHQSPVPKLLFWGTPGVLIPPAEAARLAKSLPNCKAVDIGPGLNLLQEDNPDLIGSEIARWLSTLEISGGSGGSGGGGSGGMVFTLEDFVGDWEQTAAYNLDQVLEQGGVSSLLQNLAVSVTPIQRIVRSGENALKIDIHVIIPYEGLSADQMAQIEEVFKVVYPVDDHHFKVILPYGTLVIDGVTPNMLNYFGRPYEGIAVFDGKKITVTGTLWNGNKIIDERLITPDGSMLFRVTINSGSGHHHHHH
In assay [6] the target is HaloTag[22-297](M2F)-12×Gly/Ser-LgBiT-6×His (Rhodococcus rhodochrous, UniProt P0A3G2, A155T/A167V/A172T/A224E/C128F/C176G/D78G/E160K/E257K/H272N/K175M/K195N/L47V/L88M/N227D/S58T/T264A/Y273L/Y87F). The format is biochemical. The following applies: purified reporter, 30 minutes at 4° C., furimazine.

Four compounds from patent US20240368565A1, “COMPLEMENTATION-BASED TAGS AND REPORTERS FOR DUAL-MODALITY LABELING” (Promega Corporation, priority 2023, published 2024) can be followed below.

Where “and” joins values, the source holds several entries; their conditions need not be identical. Equal entries are not always repeated. Peptide text beside a SMILES is read from it. * marks the point of attachment. Biotin = O=C1N[C@H]2[C@H](CS[C@H]2CCCCC(=O)*)N1

Sequence of HaloTag[22-297](M2F)-12xGly/Ser-LgBiT-3xGly/Ser-6xHis (P0A3G2 23-290 with tags or gaps with the stated changes): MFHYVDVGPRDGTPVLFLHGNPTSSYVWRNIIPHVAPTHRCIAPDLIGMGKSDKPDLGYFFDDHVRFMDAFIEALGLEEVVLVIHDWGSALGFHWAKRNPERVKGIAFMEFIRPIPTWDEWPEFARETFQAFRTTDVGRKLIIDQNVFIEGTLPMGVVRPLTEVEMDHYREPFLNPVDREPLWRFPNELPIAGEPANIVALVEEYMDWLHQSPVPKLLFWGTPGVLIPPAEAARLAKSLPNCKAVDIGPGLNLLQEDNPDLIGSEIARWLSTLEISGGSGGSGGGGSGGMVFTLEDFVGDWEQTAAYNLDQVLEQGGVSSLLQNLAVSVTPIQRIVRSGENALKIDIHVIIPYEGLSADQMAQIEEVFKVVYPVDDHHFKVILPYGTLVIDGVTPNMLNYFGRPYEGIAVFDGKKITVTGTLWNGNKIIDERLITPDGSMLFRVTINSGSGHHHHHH
Sequence of HaloTag[22-297](M2F + D53G + V177E)-12xGly/Ser-LgBiT-3xGly/Ser-6xHis (P0A3G2 23-290 with tags or gaps with the stated changes): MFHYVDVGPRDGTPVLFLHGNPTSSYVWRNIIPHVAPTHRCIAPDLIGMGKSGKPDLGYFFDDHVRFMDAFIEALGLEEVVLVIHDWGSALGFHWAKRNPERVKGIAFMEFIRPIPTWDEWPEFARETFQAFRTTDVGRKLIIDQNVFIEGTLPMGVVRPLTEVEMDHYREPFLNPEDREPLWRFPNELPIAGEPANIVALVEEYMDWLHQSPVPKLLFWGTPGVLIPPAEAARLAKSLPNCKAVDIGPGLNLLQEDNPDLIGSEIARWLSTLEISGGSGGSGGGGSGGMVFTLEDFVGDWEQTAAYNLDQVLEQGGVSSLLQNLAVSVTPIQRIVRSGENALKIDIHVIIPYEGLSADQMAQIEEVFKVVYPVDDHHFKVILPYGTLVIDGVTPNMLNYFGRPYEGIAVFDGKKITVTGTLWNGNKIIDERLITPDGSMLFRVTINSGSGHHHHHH

Usually Kd stands for a measure of binding affinity in units of concentration. As for `CC[C@H](C)[C@H](NC(=O)[C@H](CCCCN)NC(=O)[C@H](CCCCN)NC(=O)[C@H](Cc1ccccc1)NC(=O)[C@H](CC(C)C)NC(=O)[C@H](CCCNC(=N)N)NC(=O)[C@H](Cc1c[nH]c2ccccc12)NC(=O)CNC(=O)[C@H](CO)NC(=O)[C@@H](NC(=O)[C@H](CO)NC(=O)[C@@H](NC(=O)CNC(=O)[C@H](CO)NC(=O)CNC(=O)CNC(=O)CNC(=O)[C@H](CC(C)C)NC(=O)[C@@H](NC(=O)[C@H](CCC(=O)O)NC(=O)[C@@H](NC(=O)[C@H](Cc1ccc(O)cc1)NC(=O)[C@H](Cc1c[nH]cn1)NC(=O)[C@@H]1CCCN1C(=O)[C@H](CC(=O)O)NC(=O)[C@H](Cc1ccccc1)NC(=O)[C@@H]1CCCN1C(=O)[C@H](Cc1ccccc1)NC(=O)CNC(=O)[C@@H](NC(=O)CNC(=O)[C@H](CCCNC(=N)N)NC(=O)[C@H](CCC(=O)O)NC(=O)CCCC[C@@H]1SC[C@@H]2NC(=O)N[C@@H]21)[C@@H](C)O)C(C)C)C(C)C)C(C)C)C(C)C)C(=O)N[C@@H](CO)C(=O)O` [HaloTag[3-19](I2R)-4xGly/Ser-VSHiBiT] (Biotin-ERGTGFPFDPHYVEVLGGGSGVSVSGWRLFKKIS-OH), the Kd in assay [1] was 1610 pM; in assay [2], 684 pM and 466 pM; in assay [3], 669 pM; in assay [4], 509 pM; in assay [5], 576 pM.

On to `CC[C@H](C)[C@H](NC(=O)[C@H](CCC(=O)O)NC(=O)CCCC[C@@H]1SC[C@@H]2NC(=O)N[C@@H]21)C(=O)NCC(=O)N[C@H](C(=O)N[C@@H](CCCNC(=N)N)C(=O)N[C@@H](Cc1ccccc1)C(=O)N1CCC[C@H]1C(=O)N[C@@H](Cc1ccccc1)C(=O)N[C@@H](CC(=O)O)C(=O)N1CCC[C@H]1C(=O)N[C@@H](Cc1c[nH]cn1)C(=O)N[C@@H](Cc1ccc(O)cc1)C(=O)N[C@H](C(=O)N[C@@H](CCC(=O)O)C(=O)N[C@H](C(=O)N[C@@H](CC(C)C)C(=O)NCC(=O)NCC(=O)NCC(=O)N[C@@H](CO)C(=O)NCC(=O)N[C@H](C(=O)N[C@@H](CO)C(=O)N[C@H](C(=O)N[C@@H](CO)C(=O)NCC(=O)N[C@@H](Cc1c[nH]c2ccccc12)C(=O)N[C@@H](CCCNC(=N)N)C(=O)N[C@@H](CC(C)C)C(=O)N[C@@H](Cc1ccccc1)C(=O)N[C@@H](CCCCN)C(=O)N[C@@H](CCCCN)C(=O)N[C@H](C(=O)N[C@@H](CO)C(=O)O)[C@@H](C)CC)C(C)C)C(C)C)C(C)C)C(C)C)[C@@H](C)O` [HaloTag[3-19](G5R)-4xGly/Ser-VSHiBiT] (Biotin-EIGTRFPFDPHYVEVLGGGSGVSVSGWRLFKKIS-OH), for which the dissociation constant (Kd) in assay [4] worked out at 485 pM.

In the case of `CC[C@H](C)[C@H](NC(=O)[C@H](CCCCN)NC(=O)[C@H](CCCCN)NC(=O)[C@H](Cc1ccccc1)NC(=O)[C@H](CC(C)C)NC(=O)[C@H](CCCNC(=N)N)NC(=O)[C@H](Cc1c[nH]c2ccccc12)NC(=O)CNC(=O)[C@H](CO)NC(=O)[C@@H](NC(=O)[C@H](CO)NC(=O)[C@@H](NC(=O)CNC(=O)[C@H](CO)NC(=O)CNC(=O)CNC(=O)CNC(=O)[C@H](CC(C)C)NC(=O)[C@@H](NC(=O)[C@H](CCC(=O)O)NC(=O)[C@@H](NC(=O)[C@H](Cc1ccc(O)cc1)NC(=O)[C@H](Cc1c[nH]cn1)NC(=O)[C@@H]1CCCN1C(=O)[C@H](CC(=O)O)NC(=O)[C@H](Cc1ccccc1)NC(=O)[C@@H]1CCCN1C(=O)[C@H](Cc1ccccc1)NC(=O)CNC(=O)[C@@H](NC(=O)[C@H](CCCCN)NC(=O)[C@@H](NC(=O)[C@H](CCC(=O)O)NC(=O)CCCC[C@@H]1SC[C@@H]2NC(=O)N[C@@H]21)[C@@H](C)CC)[C@@H](C)O)C(C)C)C(C)C)C(C)C)C(C)C)C(=O)N[C@@H](CO)C(=O)O` [HaloTag[3-19](G3K)-4xGly/Ser-VSHiBiT] (Biotin-EIKTGFPFDPHYVEVLGGGSGVSVSGWRLFKKIS-OH), the Kd worked out at 264 pM in assay [2] and 102 pM in assay [4].

For the compound “KFNDQWNYRANFLKIRRVSVSGWRLFKKIS [Peptide 1061]”, in assay [6], the “Complementing the reporter to enhance luminescence signal” value is “still functional”.
